Laboratory results from patent US7833531B2, “Method for treating insulin sensitivity by long-acting GLP-1 receptor mimetibody agonists” (Centocor, Inc., priority 2006, dated 2010).
“Also recorded” adds a separate entry of the source.

Experiments:
Assay type in all cases: in vivo
[1] = test system: DIO mice; assay: Hyperinsulinemic euglycemic clamp, body weights and plasma parameters in DIO mice after acute treatment; details: for Body weight / FFA / Glucose / Glycerol / Insulin: single i.p. injection, mean ± SD; for FFA / Glucose / Glycerol / Insulin: plasma
Description: (§1) The effect of acute treatment of CNTO 736 (Table 4, SEQ ID NO:70) on insulin sensitivity and lipid metabolism was evaluated in C57Bl mice maintained on a high fat diet for 10 weeks (DIO mice). […] The effect of chronic treatment of CNTO 736 on insulin sensitivity and lipid metabolism was evaluated in C57Bl mice maintained on a high fat diet for 10 weeks. […] The hyperinsulinemic-euglycemic clamp was performed under Acepromazine (6.25 mg/kg)/Midazolam (6.25 mg/kg)/Fentanyl (0.3125 mg/kg) anaesthesia in the following manner. Mice had free access to high fat food and water until 10 hours prior to the clamp. […] Subsequently, insulin was administered in a primed (4.5 mU) continuous (6.8 mU/h) i.v. infusion for approximately 2 h to attain steady state circulating insulin levels of 4 ng/ml. […] VLDL-TG production was calculated from the slope of the concentration curve and expressed as gmol/kg/min. Turnover rates of glucose (μmol/min/kg) was calculated in basal and hyperinsulinemic conditions as the rate of tracer infusion (dpm/min) divided by the plasma specific activity of 14C-glucose (dpm/μmol). The ratio was corrected for body weight. Endogenous glucose production (EGP) was calculated as the difference between the tracer-derived rate of glucose appearance and the infusion rate of glucose. Glucose disposal was calculated based on the concentration of 14C-glucose normalized to infusion rate of glucose. The statistical significance (p<0.05) in various measures of glucose turnover and VLDL production among groups was tested by analysis of variance.

[2] = test system: DIO mice; assay: Hyperinsulinemic euglycemic clamp, body weights and plasma parameters in DIO mice after chronic treatment; details: for Body weight / FFA / Glycerol / Insulin / Glucose: daily i.p. injections weeks 7 through 10, mean ± SD; for FFA / Glycerol / Insulin / Glucose: plasma
Description: as §1, with “variance. […] Two hours after the last dose, mice were subjected to hyperinsulinemic euglycemic clamp.” for “variance.”

[3] = test system: DIO mice; assay: VLDL production in DIO mice after acute treatment
Description: (§2) The effect of acute treatment of CNTO 736 (Table 4, SEQ ID NO:70) on insulin sensitivity and lipid metabolism was evaluated in C57Bl mice maintained on a high fat diet for 10 weeks (DIO mice). […] The effect of chronic treatment of CNTO 736 on insulin sensitivity and lipid metabolism was evaluated in C57Bl mice maintained on a high fat diet for 10 weeks.
(§3) Blood samples (20 μl) were taken at t=0, 10, 20, 40 and 60 minutes after injection to determine the concentration of plasma triglycerides (TG). VLDL-TG production was calculated from the slope of the concentration curve and expressed as gmol/kg/min. Turnover rates of glucose (μmol/min/kg) was calculated in basal and hyperinsulinemic conditions as the rate of tracer infusion (dpm/min) divided by the plasma specific activity of 14C-glucose (dpm/μmol). The ratio was corrected for body weight. Endogenous glucose production (EGP) was calculated as the difference between the tracer-derived rate of glucose appearance and the infusion rate of glucose. Glucose disposal was calculated based on the concentration of 14C-glucose normalized to infusion rate of glucose. The statistical significance (p<0.05) in various measures of glucose turnover and VLDL production among groups was tested by analysis of variance.

[4] = test system: DIO mice; assay: VLDL production in DIO mice after chronic treatment; details: either dose of CNTO 736
Description: as §2, §3

[5] = test system: Sprague-Dawley rats; assay: Intracerebroventricular (icv) dosing in rats: food intake, water intake, body weight; details: icv 3 nmols
Text: Sprague-Dawley rats weighing 250-350 g were cannulized into the lateral ventricle at the following coordinates: −0.80 mm anterior, +1.2 mm lateral to bregma, −3.2 mm ventral to bregma. Animals were submitted for Angiotensin II testing to confirm that the cannulas were placed appropriately. Rats were acclimated to a reversed light/dark cycle and to handling. A 24-hour fasted/refed measurement was taken after a single PBS injection in order to establish a feeding baseline. Animals were evenly distributed according to 24-hour food intake from PBS injections (3 groups of 10 animals). Seven-ten days following PBS injection, rats were fasted for 24 hours and were dosed icv prior to entering the dark cycle.

[6] = acute, i.p., CNTO 736 1 mg/kg and 0.1 mg/kg, exenatide 7.1 ug/ml, clamp 2 hours post dosing, differences do not reach statistical significance
[7] = acute, CNTO 736 0.1 mgk, Hyperinsulinemic
[8] = acute, CNTO 736 1 mgk, Hyperinsulinemic
[9] = chronic, CNTO 736 0.1 mgk, Basal
[10] = chronic, CNTO 736 0.1 mgk, Hyperinsulinemic
[11] = chronic, CNTO 736 1 mgk, Hyperinsulinemic
[12] = 24 hours fasted rats, first 12 hours following dosing
[13] = second 12 hours following dosing (12-24 hours)

“CNTO 736: a GLP-1 receptor agonist, a GLP-1 mimetibody construct; sequence in Table 4 (SEQ ID NO:70)” was tested, and the “glycerol turnover (lipolysis)” value ([1]; acute administration, either dose, basal (fasting) or hyperinsulinemic conditions) was “did not affect glycerol turnover”, the basal glucose production [1, 6] was “tend to decrease the basal glucose production” and the “whole body glucose disposal” value [1, 6] was “increase the whole body glucose disposal”. For the same substance, the Body weight ([1]; acute, CNTO 736 0.1 mgk, Basal) was 31.3 ± 1.6 g, the Body weight [1, 7] was 31.3 ± 1.6 g and the Body weight ([1]; acute, CNTO 736 1 mgk, Basal) was 31.2 ± 2.2 g. It also gave a Body weight [1, 8] of 31.2 ± 2.2 g, an FFA ([1]; acute, CNTO 736 0.1 mgk, Basal) of 1.1 ± 0.5 mmol/L and a Glucose ([1]; acute, CNTO 736 0.1 mgk, Basal) of 5.5 ± 1.2 mmol/L. It also gave a Glycerol ([1]; acute, CNTO 736 0.1 mgk, Basal) of 0.2 ± 0.1 mmol/L, an Insulin ([1]; acute, CNTO 736 0.1 mgk, Basal) of 1.1 ± 0.8 ng/mL and an FFA [1, 7] of 0.7 ± 0.3 mmol/L. It also gave a Glucose [1, 7] of 7.3 ± 0.5 mmol/L, a Glycerol [1, 7] of 0.1 ± 0.1 mmol/L and an Insulin [1, 7] of 3.5 ± 1.3 ng/mL. It also gave an FFA ([1]; acute, CNTO 736 1 mgk, Basal) of 1.1 ± 0.5 mmol/L, a Glycerol ([1]; acute, CNTO 736 1 mgk, Basal) of 0.2 ± 0.1 mmol/L and an Insulin ([1]; acute, CNTO 736 1 mgk, Basal) of 0.9 ± 0.6 ng/mL. For the same substance, the FFA [1, 8] was 0.6 ± 0.4 mmol/L, the Glucose [1, 8] was 8.0 ± 0.8 mmol/L and the Glycerol [1, 8] was 0.1 ± 0.1 mmol/L. The Insulin [1, 8] was 4.5 ± 1.7 ng/mL, the “glycerol turnover (lipolysis)” value ([2]; chronic administration, either dose, basal (fasting) or hyperinsulinemic conditions) was “did not affect glycerol turnover” and the “insulin action / peripheral insulin sensitivity” value ([2]; chronic dosing, mice with diet-induced obesity) was “improve insulin action; also recorded: significantly improves peripheral insulin sensitivity”. It also gave a Body weight [2, 9] of 26.1 ± 1.9 g, a Body weight [2, 10] of 26.1 ± 1.9 g and a Body weight [2, 11] of 25.1 ± 1.3 g. The “gluconeogenesis in the fasting state (de novo glucose production)” value ([2]; chronic, i.p. daily for 4 weeks) was “significantly decreased gluconeogenesis; also recorded: inhibits hepatic gluconeogenesis”, the “basal hepatic glucose production” value ([2]; chronic, i.p. daily for 4 weeks, both doses of CNTO 736 (1 or 0.1 mg/kg), exendin-4 7.1 μg/kg) was “significantly decreased” and the “insulin-inhibition of hepatic glucose production” value ([2]; chronic, i.p. daily for 4 weeks, both doses of CNTO 736, exendin-4 7.1 μg/kg) was “increased insulin-inhibition of hepatic glucose production”. For the same substance, the “whole body glucose disposal in the hyperinsulinemic state” value ([2]; chronic, i.p. daily for 4 weeks, high dose of CNTO 736 (1 mg/kg), exendin-4 7.1 μg/kg) was “significantly increased”, the “gluconeogenesis in the fasting state (de novo glucose production)” value ([2]; chronic, i.p. daily for 4 weeks, listed as CNT0736) was “inhibited de novo glucose production” and the FFA [2, 9] was 1.1 ± 0.3 mmol/L. For the same substance, the Glycerol [2, 9] was 0.2 ± 0.0 mmol/L, the Insulin [2, 9] was 1.1 ± 0.6 ng/mL and the FFA [2, 10] was 0.5 ± 0.1 mmol/L. The Glucose [2, 10] was 7.6 ± 1.1 mmol/L, the Glycerol [2, 10] was 0.1 ± 0.1 mmol/L and the Insulin [2, 10] was 4.6 ± 1.0 ng/mL. The FFA ([2]; chronic, CNTO 736 1 mgk, Basal) was 1.1 ± 0.2 mmol/L, the Glycerol ([2]; chronic, CNTO 736 1 mgk, Basal) was 0.2 ± 0.1 mmol/L and the Insulin ([2]; chronic, CNTO 736 1 mgk, Basal) was 1.4 ± 1.3 ng/mL. It also gave an FFA [2, 11] of 0.4 ± 0.1 mmol/L, a Glucose [2, 11] of 7.6 ± 0.9 mmol/L and a Glycerol [2, 11] of 0.1 ± 0.1 mmol/L. For the same substance, the Insulin [2, 11] was 5.0 ± 1.9 ng/mL, the “basal or hyperinsulinemic rate of VLDL production” value [3] was “did not change” and the “basal and hyperinsulinemic rate of VLDL production” value [4] was “significantly decreased; also recorded: decreases VLDL production”. The food intake [5, 12] was “significant reduction”, the water intake [5, 12] was “significant reduction” and the food intake [5, 13] was “significant reduction in food intake”. For the same substance, the water intake [5, 13] was “observed only with exendin-4 treatment”.
